Tests used:
[1] = tested on: plasma active GLP-1 level; test: Plasma active GLP-1 level in glucose-loaded normal (DPP4-positive) rats, Example 2; assay type: in vivo, rat; conditions: DPP4-positive male Fisher rats, mean ± SEM, n=6
Protocol: DPP4-positive male Fisher rats (purchased from Japan SLC, Inc.)
(§1) Each test compound was suspended in a solution of 0.5% carboxymethyl cellulose containing 0.2% Tween 80 at the doses indicated in Table 2, and administered to the test group orally at a volume of 5 mL/kg. The vehicle control group was orally administered a solution of 0.5% carboxymethyl cellulose containing 0.2% Tween 80 at a volume of 5 mL/kg. Just after the administration of the compound or vehicle, a glucose solution (2 g/kg/5 mL) was given orally.
Blood was collected from the caudal vein of an unanesthetized rat just before and 0.2, 0.5, 1, and 2 hours after glucose loading. Plasma active GLP-1 level was determined by using RAT ENDOCRINE LINCOplex KIT (LINCO Research).

[2] = tested on: plasma active GLP-1 level; test: Plasma active GLP-1 level in glucose-loaded diabetic mice; assay type: in vivo; conditions: male db/db mice, mean ± SEM, n=8
Protocol: Male BKS.Cg−+Lepr^db/+Lepr^db/Jcl mice; an Animal Model of Type 2 Diabetes (Purchased from CLEA Japan, Inc.)
as §1, with “3,” for “2,”
Blood was collected from the caudal vein of an unanesthetized mice just before and 0.5, 1, and 2 hours after glucose loading. Plasma active GLP-1 level was determined by using RAT ENDOCRINE LINCOplex KIT (LINCO Research).

[3] = tested on: plasma active GLP-1 level; test: Plasma active GLP-1 level in glucose-loaded DPP4-deficient rats; assay type: in vivo, rat; conditions: for GLP-1 concentration at each time point (hr) after oral administration: DPP4-deficient male Fisher rats, mean ± SEM, n=6
Protocol: DPP4-deficient male Fisher rats (purchased from Charles River Japan, Inc.)
as §1, with “The” for “Each”, “1,” for “2,”, “ml)” for “mL)”
Blood was collected from the caudal vein of an unanesthetized rat just before and 0.5, 1, and 3 hours after glucose loading. Plasma active GLP-1 level was determined by using RAT ENDOCRINE LINCOplex KIT (LINCO Research).

[4] = tested on: plasma active GLP-1 level; test: Plasma active GLP-1 level in glucose-loaded normal (DPP4-positive) rats, Example 4; assay type: in vivo, rat; conditions: Table 6, 10 mg/kg oral, DPP4-positive male Fisher rats, mean ± SEM, n=5 or 6
[5] = 0 hr (just before), 3 mg/kg oral
[6] = 0 hr (just before), 10 mg/kg oral
[7] = 0 hr (just before), 30 mg/kg oral

`N#C[C@@H]1CCCN1C(=O)CN[C@H]1CC[C@H](C(=O)N2CCOCC2)CC1` (relative stereo) [Compound B, (2S)-2-Cyano-1-[trans-4-(morpholinocarbonyl)cyclohexylamino]acetylpyrrolidine] was tested, and the “GLP-1 concentration at each time point (hr) after oral administration” value (shortened to “GLP-1 concentration at each time point”) [1, 5] was 7.2 ± 0.6 pM, the “GLP-1 concentration at each time point” value ([1]; 0.2 hr, 3 mg/kg oral) was 9.8 ± 0.7 pM and the “GLP-1 concentration at each time point” value ([1]; 0.5 hr, 3 mg/kg oral) was 9.4 ± 0.4 pM. The “GLP-1 concentration at each time point” value ([1]; 1 hr, 3 mg/kg oral) was 8.3 ± 0.3 pM, the “GLP-1 concentration at each time point” value ([1]; 2 hr, 3 mg/kg oral) was 7.9 ± 0.5 pM and the “GLP-1 concentration at each time point” value [2, 5] was 18.4 ± 5.1 pM. For the same compound, the “GLP-1 concentration at each time point” value ([2]; 0.5 hr, 3 mg/kg oral) was 30.0 ± 5.5 pM, the “GLP-1 concentration at each time point” value ([2]; 1 hr, 3 mg/kg oral) was 46.5 ± 10.1 pM and the “GLP-1 concentration at each time point” value ([2]; 2 hr, 3 mg/kg oral) was 25.0 ± 4.1 pM.

`OC[C@H]1O[C@@H](c2ccc(Cl)c(Cc3ccc(-c4cccc(F)n4)s3)c2)[C@H](O)[C@@H](O)[C@@H]1O` [Compound A, 1-(β-D-glucopyranosyl)-4-chloro-3-[5-(6-fluoro-2-pyridyl)-2-thienylmethyl]benzene] was tested, and the “GLP-1 concentration at each time point” value [1, 6] was 7.7 ± 0.4 pM, the “GLP-1 concentration at each time point” value [1, 7] was 5.9 ± 0.3 pM and the “GLP-1 concentration at each time point” value ([1]; 0.2 hr, 10 mg/kg oral) was 7.9 ± 0.2 pM. The “GLP-1 concentration at each time point” value ([1]; 0.2 hr, 30 mg/kg oral) was 7.1 ± 0.3 pM, the “GLP-1 concentration at each time point” value ([1]; 0.5 hr, 10 mg/kg oral) was 10.2 ± 1.0 pM and the “GLP-1 concentration at each time point” value ([1]; 0.5 hr, 30 mg/kg oral) was 6.7 ± 0.4 pM. The “GLP-1 concentration at each time point” value ([1]; 1 hr, 10 mg/kg oral) was 9.5 ± 0.6 pM, the “GLP-1 concentration at each time point” value ([1]; 1 hr, 30 mg/kg oral) was 7.5 ± 0.9 pM and the “GLP-1 concentration at each time point” value ([1]; 2 hr, 10 mg/kg oral) was 9.6 ± 0.8 pM. For the same compound, the “GLP-1 concentration at each time point” value ([1]; 2 hr, 30 mg/kg oral) was 9.0 ± 0.9 pM, the “GLP-1 concentration at each time point” value [2, 6] was 20.3 ± 9.6 pM and the “GLP-1 concentration at each time point” value ([2]; 0.5 hr, 10 mg/kg oral) was 42.6 ± 13.4 pM. The “GLP-1 concentration at each time point” value ([2]; 1 hr, 10 mg/kg oral) was 49.4 ± 12.0 pM, the “GLP-1 concentration at each time point” value ([2]; 2 hr, 10 mg/kg oral) was 30.9 ± 8.2 pM and the “GLP-1 concentration at each time point” value [3, 6] was 6.2 ± 1.3 pM. The “GLP-1 concentration at each time point” value [3, 7] was 5.3 ± 0.7 pM, the “GLP-1 concentration at each time point” value ([3]; 0.5 hr, 10 mg/kg oral) was 24.5 ± 4.7 pM and the “GLP-1 concentration at each time point” value ([3]; 0.5 hr, 30 mg/kg oral) was 24.9 ± 3.8 pM. For the same compound, the “GLP-1 concentration at each time point” value ([3]; 1 hr, 10 mg/kg oral) was 31.3 ± 7.0 pM, the “GLP-1 concentration at each time point” value ([3]; 1 hr, 30 mg/kg oral) was 34.1 ± 5.7 pM and the “GLP-1 concentration at each time point” value ([3]; 3 hr, 10 mg/kg oral) was 21.9 ± 2.4 pM. The “GLP-1 concentration at each time point” value ([3]; 3 hr, 30 mg/kg oral) was 27.1 ± 2.1 pM and the “effect on plasma active GLP-1 level (in words)” value ([3]; DPP4-deficient rats, summary of Table 1) was “markedly increased”.

`CN(C)C(=O)[C@H]1CC[C@H](NCC(=O)N2CCC[C@H]2C#N)CC1.O=S(=O)(O)c1ccccc1` (relative stereo) [Compound I, (2S)-2-cyano-1-[trans-4-(dimethylaminocarbonyl)cyclohexylamino]acetylpyrrolidine besylate] was tested, and the “GLP-1 concentration at 2 hr after oral administration” value [4] was 4.0 ± 0.6 pM.

From patent US20140371162A1, “COMBINATION THERAPY COMPRISING SGLT INHIBITORS AND DPP4 INHIBITORS” (MITSUBISHI TANABE PHARMA CORPORATION, priority 2008, published 2014)
